Earlier results, collected in patent US20130108701A1, “Solid Dosage Forms of Antipsychotics” (priority 2010, published 2013).
Counter-ions that a name gives are not always drawn.

Legend:
[1] = not given; remark: listed apart in the source

## O=C1Cc2cc(CCN3CCN(c4nsc5ccccc45)CC3)c(Cl)cc2N1 [Ziprasidone hydrochloride, 5-[2-[4-(1,2-benzisothiazol-3-yl)-1-piperazinyl]ethyl]-6-chloro-1,3-dihydro-2H-indol-2-one]
other
  aqueous solubility: relatively poor
[1]
  permeability: high
